In patent US20130143230A1, “MICROFLUIDIC-BASED CELL-CULTURING PLATFORM AND METHOD” (The Trustees of the Stevens Institute of Technology, priority 2011, published 2013):

What was measured:
Assay type in all cases: cell-based, Human
MCF-7 [1] = test: Photodynamic therapy in 2D culture, live/dead staining
From the text: […] After cellular uptake, 5-ALA was converted into photosensitive protoporphyrin (PpIX). […] High ROS concentrations led to cell destruction. To determine the extent of cell damage, the culture was stained with a live/dead staining kit (Sigma) after overnight culture and examined with a Leica confocal microscope.

MCF-7 [2] = test: Photodynamic therapy in 3D cultured breast cancer tissue, live/dead staining; details: 3D tissue, perfusion 4 hours, broadband halogen light 1 minute, stained after overnight culture
Experimental: A photosensitizer precursor drug, aminolevulinic acid (5-ALA) was supplemented in the culture media delivered to a 3D cultured breast cancer tissue (MCF-7), and allowed to infiltrate the tissue via perfusion for 4 hours to emulate microinjection. After cellular uptake, 5-ALA was converted into photosensitive protoporphyrin (PpIX). […] High ROS concentrations led to cell destruction. To determine the extent of cell damage, the culture was stained with a live/dead staining kit (Sigma) after overnight culture and examined with a Leica confocal microscope.

MCF-7 [3] = test: Drug evaluation in microfluidic 3D breast cancer tissue culture (tissue nodules); details: flow 0.8 μL/min, one week, 3D microfluidic culture
Experimental: Human breast cancer cells (from immortalized cell line MCF-7) were incubated in a tissue culture chamber for 2 weeks with a continuous media flow at 0.8 μL/min. Initial cell attachment was seen across the entire chamber surface and continuously proliferated over time to form a 3D tissue layer having a depth of about 70-100 μm. […] These structures were similar to those observed in the earliest stages of tumor formation. A majority of the cells remained viable.
In contrast to pure cultures of breast cancer cells, co-cultures with stromal cells stimulate breast cancer cells. […] At three weeks of incubation, the nodule-like structures had become large enough to be recognized under a microscope, reaching 80-150 μm in diameter. Based on histological staining, the organization of these cells was consistent with their cancerous origin. The cells appeared to be transformed, having an increased nuclear/cytoplasmic ratio, and the cell mass was disorganized.
Doxorubicin (Dox), a known anticancer drug, was first tested using the microfluidic breast tissue culture described in the preceding examples. Dox was delivered to the tissue nodules at 10 nM and 1 μM, respectively, at a flow rate of 0.8 μL/min of medium via the inlet for one week.
A new lytic anticancer peptide (L5) was designed and synthesized to interact with cell membranes and therefore disrupt membrane integrity and destroy cells. The peptide drug was delivered to the tissue nodules at 30 μg/mL in the medium at a flow rate of 0.8 μL/min of medium via inlet for 2 days. […] Occasionally, some nuclei were still seen in the remaining tissue matrix. […] This may be due to a reduced rate of diffusion of the drug to the area of the surviving cells. This finding highlights the value of using the microfluidic culture model for drug assessment as it provides a more accurate representation of the 3D cellular organization encountered in vivo. It also hints at a plausible explanation to why some breast cancer therapies fail in vivo or why recurrence and multidrug resistance occurs after chemotherapy. […]

| Structure (SMILES) | cells killed after PDT treatment (MCF-7 [1]) | cells killed after PDT treatment (MCF-7 [2]) | progression of tumor nodules (real-time images) (MCF-7 [3]; 10 nM in medium) | formation of dark nodules (real-time images) (MCF-7 [3]; 1 μM in medium) | tissue growth (MCF-7 [3]; 1 μM in medium) |
| --- | --- | --- | --- | --- | --- |
| NCC(=O)CCC(=O)O [5-ALA, aminolevulinic acid] | about 70% | about 50% | – | – | – |
| COc1cccc2c1C(=O)c1c(O)c3c(c(O)c1C2=O)C[C@@](O)(C(=O)CO)C[C@@H]3O[C@H]1C[C@H](N)[C@H](O)[C@H](C)O1 [Dox, Doxorubicin] | – | – | continuous progression of tumor nodules was observed | No obvious formation of dark nodules was observed | continuous tissue growth was noticed |
